Test results published in patent publication US20110045101A1, “FUNGICIDAL SUBSTITUTED AZOLES” (E.I. Du Pont De Nemours and Company, priority 2009, published 2011).
Marks after values point to notes of the source that are not given here.

Experiments:
Type in all cases: in vivo
Botrytis cinerea = assay: Test C: tomato Botrytis on tomato seedlings, sprayed the day before inoculation, visual disease rating; settings: 100 = 100% disease control; for pest or weed control at 200 ppm: Botrytis cinerea, 120 h
Method in brief: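 Rate: 200 ppm sprayed to run-off, corresponding to 500 g/ha; flagged values used 40 ppm. Vehicle was aqueous acetone (1:1) plus 250 ppm surfactant, compounds predissolved in acetone at 3% of volume. Plants were tomato seedlings.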

Alternaria solani = assay: Test D: tomato early blight, sprayed the day before inoculation, visual disease rating; settings: 100 = 100% disease control; for pest or weed control at 200 ppm: Alternaria solani, 168 h
Method in brief: (§1)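 Plants received a run-off spray at 200 ppm (equivalent to 500 g/ha) or, for starred values, 40 ppm. Formulation used acetone at 3% of volume in a 50/50 acetone/water mix carrying 250 ppm Trem® 014.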

Septoria nodorum = assay: Test F: wheat glume blotch on wheat seedlings, sprayed the day before inoculation, visual disease rating; settings: 100 = 100% disease control; for pest or weed control at 200 ppm: Parastagonospora nodorum, 264 h
Method in brief: as §1

Septoria tritici = assay: Test G: wheat leaf blotch on wheat seedlings, sprayed the day before inoculation, visual disease rating; settings: 100 = 100% disease control; for pest or weed control at 200 ppm: Zymoseptoria tritici, 504 h
Method in brief: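 Seedlings receive a protective spray of test suspension in acetone/water carrying 250 ppm surfactant, mostly at 200 ppm and at 40 ppm where marked. They are inoculated the next day, kept saturated at 24° C for 48 h, then held at 20° C for 19 days before visual scoring.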

[1] = system: Puccinia recondita f. sp. tritici; assay: Test H: wheat leaf rust, test suspension sprayed after inoculation of wheat seedlings, visual disease rating; settings: 100 = 100% disease control; for pest or weed control at 200 ppm: Puccinia recondita, 96 h
Method in brief: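 Wheat seedlings inoculated with P. recondita spores, held 24 h saturated at 20 °C, then 2 days in growth chamber at 20 °C; compound suspension (acetone/water with Trem 014) sprayed to run-off afterwards. Rated visually; 200 ppm (≈500 g/ha) unless marked *, which denotes 40 ppm.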

[2] = system: Puccinia recondita f. sp. tritici; assay: Test I: wheat leaf rust on wheat seedlings, sprayed the day before inoculation, visual disease rating; settings: 100 = 100% disease control; for pest or weed control at 200 ppm: Puccinia recondita, 168 h
Method in brief: as §1

[3] = system: Erysiphe graminis f. sp. tritici; assay: Test J: wheat powdery mildew on wheat seedlings, sprayed the day before inoculation, visual disease rating; settings: 100 = 100% disease control; for pest or weed control at 200 ppm: Blumeria graminis, 168 h
Method in brief: as §1

[4] = 200 ppm, 0 = no control relative to controls
[5] = 40 ppm (marked *), 0 = no control

COc1cc(F)c(-c2c(Cl)nc(C=NO)n2-c2ccc(F)cc2)c(F)c1 [Compound 349, 4-chloro-5-(2,6-difluoro-4-methoxyphenyl)-1-(4-fluorophenyl)-1H-imidazole-2-carboxaldehyde oxime]
pest or weed control at 200 ppm (Botrytis cinerea; [4]): 100%
pest or weed control at 200 ppm (Alternaria solani; [4]): 99%
pest or weed control at 200 ppm (Septoria nodorum; [4]): 99%
pest or weed control at 200 ppm (Septoria tritici; [4]): 88%
pest or weed control at 200 ppm [1, 4]: 0%
pest or weed control at 200 ppm [2, 4]: 99%
pest or weed control at 200 ppm [3, 4]: 95%

CCOc1ccc(F)c(-c2c(Cl)ncn2-c2ccc(Cl)cc2)c1F [compound 660]
Test C disease control rating (Botrytis cinerea; [4]): 100%
Test D disease control rating (Alternaria solani; [4]): 98%
Test F disease control rating (Septoria nodorum; [4]): 82%
Test G disease control rating (Septoria tritici; [4]): 100%
Test H disease control rating [1, 4]: 9%
Test I disease control rating [2, 4]: 92%
Test J disease control rating [3, 4]: 100%

COc1cc(F)c(-c2c(Cl)nc(C=O)n2-c2ccc(F)cc2)c(F)c1 [Compound 276, 4-chloro-5-(2,6-difluoro-4-methoxyphenyl)-1-(4-fluorophenyl)-1H-imidazole-2-carboxaldehyde]
pest or weed control at 200 ppm (Botrytis cinerea; 200 ppm, 0 = no control): 100%
pest or weed control at 200 ppm (Alternaria solani; 200 ppm, 0 = no control): 100%
pest or weed control at 200 ppm (Septoria nodorum; 200 ppm, 0 = no control): 0%
pest or weed control at 200 ppm (Septoria tritici; 200 ppm, 0 = no control): 92%
pest or weed control at 200 ppm ([1]; 200 ppm, 0 = no control): 9%
pest or weed control at 200 ppm ([2]; 200 ppm, 0 = no control): 98%
pest or weed control at 200 ppm ([3]; 200 ppm, 0 = no control): 100%

COC(=O)Cc1nc(Br)c(-c2c(F)cccc2F)n1-c1ccc(Cl)cc1 [Compound 544, methyl 4-bromo-1-(4-chlorophenyl)-5-(2,6-difluorophenyl)-1H-imidazole-2-acetate]
pest or weed control at 200 ppm (Botrytis cinerea; [4]): 84%
pest or weed control at 200 ppm (Alternaria solani; [4]): 98%
pest or weed control at 200 ppm (Septoria nodorum; [4]): 0%
pest or weed control at 200 ppm (Septoria tritici; [4]): 82%
pest or weed control at 200 ppm [1, 4]: 9%
pest or weed control at 200 ppm [2, 4]: 91%
pest or weed control at 200 ppm [3, 4]: 86%

COc1ccc(F)c(-c2c(Cl)nc(C)n2-c2ccc(Cl)cc2)c1Cl [compound 519]
Test C disease control rating (Botrytis cinerea; [4]): 100%
Test D disease control rating (Alternaria solani; [4]): 100%
Test F disease control rating (Septoria nodorum; [4]): 100%
Test G disease control rating (Septoria tritici; [4]): 97%
Test H disease control rating [1, 4]: 0%
Test I disease control rating [2, 4]: 100%
Test J disease control rating [3, 4]: 100%

Cc1nc(C)n(-c2ccc(Cl)c(F)c2)c1-c1c(F)ccc(F)c1F [compound 415]
Test C disease control rating (Botrytis cinerea; [5]): 100* %
Test D disease control rating (Alternaria solani; [5]): 100* %
Test F disease control rating (Septoria nodorum; [5]): 0* %
Test G disease control rating (Septoria tritici; [5]): 99* %
Test H disease control rating [1, 5]: 0* %
Test I disease control rating [2, 5]: 94* %
Test J disease control rating [3, 5]: 98* %

COc1cc(F)c(-n2nnc(C)c2-c2ccc(Cl)cc2)c(F)c1 [compound 595]
Test C disease control rating (Botrytis cinerea; [4]): 100%
Test D disease control rating (Alternaria solani; [4]): 80%
Test F disease control rating (Septoria nodorum; [4]): 0%
Test G disease control rating (Septoria tritici; [4]): 96%
Test H disease control rating [1, 4]: 22%
Test I disease control rating [2, 4]: 74%
Test J disease control rating [3, 4]: 98%

Fc1ccc(F)c(-c2c(Br)ncn2-c2ccc(Cl)cc2)c1Cl [compound 343]
Test C disease control rating (Botrytis cinerea; [4]): 100%
Test D disease control rating (Alternaria solani; [4]): 97%
Test F disease control rating (Septoria nodorum; [4]): 64%
Test G disease control rating (Septoria tritici; [4]): 94%
Test H disease control rating [1, 4]: 0%
Test I disease control rating [2, 4]: 93%
Test J disease control rating [3, 4]: 98%

COc1ccc(F)c(-c2c(Br)nc(Cl)n2-c2ccc(Cl)cc2)c1F [compound 510]
Test C disease control rating (Botrytis cinerea; [4]): 99%
Test D disease control rating (Alternaria solani; [4]): 100%
Test F disease control rating (Septoria nodorum; [4]): 100%
Test G disease control rating (Septoria tritici; [4]): 99%
Test H disease control rating [1, 4]: 9%
Test I disease control rating [2, 4]: 98%
Test J disease control rating [3, 4]: 100%

Cc1nc(Cl)c(-c2c(F)cccc2F)n1-c1ccc2c(c1)OCCO2 [compound 470]
Test C disease control rating (Botrytis cinerea; 40 ppm (marked *)): 99* %
Test D disease control rating (Alternaria solani; 40 ppm (marked *)): 99* %
Test F disease control rating (Septoria nodorum; 40 ppm (marked *)): 0* %
Test G disease control rating (Septoria tritici; 40 ppm (marked *)): 92* %
Test H disease control rating ([1]; 40 ppm (marked *)): 0* %
Test I disease control rating ([2]; 40 ppm (marked *)): 99* %
Test J disease control rating ([3]; 40 ppm (marked *)): 87* %

COc1cc(Cl)cc(Cl)c1-c1c(Cl)nc(Cl)n1-c1ccc(Cl)c(F)c1 [compound 438]
Test C disease control rating (Botrytis cinerea; [4]): 0%
Test D disease control rating (Alternaria solani; [4]): 0%
Test F disease control rating (Septoria nodorum; [4]): 0%
Test G disease control rating (Septoria tritici; [5]): 86* %
Test H disease control rating [1, 4]: 0%
Test I disease control rating [2, 4]: 0%
Test J disease control rating [3, 4]: 0%

COc1cc(F)c(-c2c(C)nc(C)n2-c2ccc(C)cc2)c(F)c1 [compound 521]
Test C disease control rating (Botrytis cinerea; 40 ppm (marked *)): 99* %
Test D disease control rating (Alternaria solani; 40 ppm (marked *)): 99* %
Test F disease control rating (Septoria nodorum; 40 ppm (marked *)): 0* %
Test G disease control rating (Septoria tritici; 40 ppm (marked *)): 98* %
Test H disease control rating ([1]; 40 ppm (marked *)): 0* %
Test I disease control rating ([2]; 40 ppm (marked *)): 98* %
Test J disease control rating ([3]; 40 ppm (marked *)): 90* %

Cc1nc(Cl)c(-c2c(F)cccc2F)n1-c1ccc2ncccc2c1 [compound 468]
Test C disease control rating (Botrytis cinerea; 40 ppm (marked *)): 99* %
Test D disease control rating (Alternaria solani; 40 ppm (marked *)): 99* %
Test F disease control rating (Septoria nodorum; 40 ppm (marked *)): 0* %
Test G disease control rating (Septoria tritici; 40 ppm (marked *)): 96* %
Test H disease control rating ([1]; 40 ppm (marked *)): 0* %
Test I disease control rating ([2]; 40 ppm (marked *)): 91* %
Test J disease control rating ([3]; 40 ppm (marked *)): 58* %

COC(=O)c1ccc(-n2cnc(Cl)c2-c2c(F)cccc2F)cc1 [compound 614]
Test C disease control rating (Botrytis cinerea; 40 ppm (marked *)): 89* %
Test D disease control rating (Alternaria solani; 40 ppm (marked *)): 0* %
Test F disease control rating (Septoria nodorum; 40 ppm (marked *)): 0* %
Test G disease control rating (Septoria tritici; 40 ppm (marked *)): 92* %
Test H disease control rating ([1]; 40 ppm (marked *)): 0* %
Test I disease control rating ([2]; 40 ppm (marked *)): 28* %
Test J disease control rating ([3]; 40 ppm (marked *)): 0* %

COc1ccc(F)c(-c2c(Cl)nc(Cl)n2-c2cccc(OC(F)F)c2)c1F [compound 400]
Test C disease control rating (Botrytis cinerea; [4]): 100%
Test D disease control rating (Alternaria solani; [4]): 100%
Test F disease control rating (Septoria nodorum; [4]): 99%
Test G disease control rating (Septoria tritici; [4]): 94%
Test H disease control rating [1, 4]: 0%
Test I disease control rating [2, 4]: 99%
Test J disease control rating [3, 4]: 100%

COc1ccc(F)c(-c2c(Cl)nc(Br)n2-c2cccc(OC(F)F)c2)c1F [compound 402]
Test C disease control rating (Botrytis cinerea; [4]): 100%
Test D disease control rating (Alternaria solani; [4]): 100%
Test F disease control rating (Septoria nodorum; [4]): 99%
Test G disease control rating (Septoria tritici; [4]): 96%
Test H disease control rating [1, 4]: 0%
Test I disease control rating [2, 4]: 94%
Test J disease control rating [3, 4]: 99%

Cc1nc(Cl)n(-c2ccc(F)cc2)c1-c1c(F)cc(F)cc1F [compound 492]
Test C disease control rating (Botrytis cinerea; 40 ppm (marked *)): 94* %
Test D disease control rating (Alternaria solani; 40 ppm (marked *)): 100* %
Test F disease control rating (Septoria nodorum; 40 ppm (marked *)): 0* %
Test G disease control rating (Septoria tritici; 40 ppm (marked *)): 82* %
Test H disease control rating ([1]; 40 ppm (marked *)): 0* %
Test I disease control rating ([2]; 40 ppm (marked *)): 0* %
Test J disease control rating ([3]; 40 ppm (marked *)): 0* %
